Measurements published in article PMC11585928, “Screening the Global Health Priority Box against Plasmodium berghei liver stage parasites using an inexpensive luciferase detection protocol” (Malaria Journal, 2024).

Columns and labels:
[1] = test system: P. berghei liver stage schizonts; assay: microbe, parasite or virus in culture; type: cell-based; conditions: Plasmodium berghei, HepG2, 44 h, read-out: High Content Imaging (pEC50 ± SD) (converted)
Description: (§1) HepG2 seeding (1.75 × 10^4 cells/well), salivary gland dissection, sporozoite quantification, and sporozoite dilution were performed as described above. To test the titration of sporozoite in dose–response format with MMV390048, 20 µL of a 25 sporozoite/μL solution in HepG2 media was added to columns 1–8 of 384-well plates (inoculum of 500 sporozoites/well), 20 μL of 50 sporozoites/μL was added into columns 9–16 (inoculum of 1000 sporozoites/well), and 20 μL of 100 sporozoites/μL was added into columns 17–24 (inoculum of 2000 sporozoites/well). To test legacy anti-malarials, two independent experiments were performed for each endpoint (FLAR or HCI), each with an independent production run of P. berghei sporozoites. […] Infected plates were spun for 5 min at 200 RCF and kept for 3 h at 37 °C and 5% CO2 prior to compound treatment.
(§2) Compound treatment was performed as previously described. Dose–response source plates containing 5 μL of 1000 × test compounds in a serial dilution in DMSO were prepared in low volume 384-well plates using a Biomek 4000 (Beckman Coulter). Assay plates were treated by transferring 40 nL from screening or dose–response source plates using a pin tool (V&P Scientific) affixed to a Biomek NXp, resulting in a final test concentration of 1 × in media.
After 44 h, dose–response plates designated for the FLAR endpoint underwent the freeze/thaw lysis method before detection with 1 × FLAR completed with 1 × D-luciferin and ATP endpoint described above. Plates designated for the HCI endpoint were fixed with 4% paraformaldehyde (Thermo Scientific, cat 043368.9 M) in PBS for 20 min. Following fixation, the plate was washed twice by adding and then dumping 20 µL of PBS/well. Plates were then stained with 50 ng/mL of mouse anti-Plasmodium glyceraldehyde 3-phosphate dehydrogenase (GAPDH) (European Malaria Reagent Repository, cat 13.3) diluted in a 0.3% Triton X and 1% BSA permeabilization and blocking stain buffer overnight at 4 °C. Following three washes with PBS, plates were stained with 2 µg/mL of goat anti-mouse AlexaFluor 488 (Invitrogen, cat A11001) diluted in stain buffer and again incubated overnight at 4 °C. Following three washes with PBS, plates were counterstained with 10 µg/mL Hoechst 33342 (Invitrogen, cat H21492) for 30 min before two washes. Plates were imaged on an ImageXpress Micro Confocal high content system (Molecular Devices). Raw values (either parasite growth area for HCI or Relative Light Units (RLU) for FLAR) were normalized to the positive (MMV390048) or negative (DMSO) controls using the equation: %Inhibition=100×RawData-AverageNegativeControl/AveragePositiveControl-AverageNegativeControl and curve fitting was performed with CDD Vault using the Levenberg–Marquardt algorithm. Potency data from all plates were collected, visualized, and analysed using GraphPad Prism (Version 10.0.3). Potency values for legacy anti-malarials obtained from our FLAR endpoint were compared to those previously reported from a 1536-well plate format using a Bright-Glo™ luciferase detection protocol.

[2] = test system: luciferase-expressing P. berghei liver stage schizonts; assay: P. berghei liver stage dose-response assay in HepG2, FLAR luciferase endpoint (legacy anti-malarials); type: cell-based; conditions: Plasmodium berghei, HepG2, 44 h, read-out: FLAR (pEC50 ± SD) (converted)
Description: All stock reagents were stored at 4 °C, except D-luciferin, ATP, and DTT which were aliquoted and stored at − 20 °C. Tricine, MgSO4, and MgCO3 stocks were all adjusted to have a pH of 7.8.
as §1, with “To” for “HepG2 seeding (1.75 × 10^4 cells/well), salivary gland dissection, sporozoite quantification, and sporozoite dilution were performed as described above. To”
as §2
After 44 h, dose–response plates designated for the FLAR endpoint underwent the freeze/thaw lysis method before detection with 1 × FLAR completed with 1 × D-luciferin and ATP endpoint described above. […] Following fixation, the plate was washed twice by adding and then dumping 20 µL of PBS/well. […] Plates were imaged on an ImageXpress Micro Confocal high content system (Molecular Devices). Raw values (either parasite growth area for HCI or Relative Light Units (RLU) for FLAR) were normalized to the positive (MMV390048) or negative (DMSO) controls using the equation: %Inhibition=100×RawData-AverageNegativeControl/AveragePositiveControl-AverageNegativeControl and curve fitting was performed with CDD Vault using the Levenberg–Marquardt algorithm. Potency data from all plates were collected, visualized, and analysed using GraphPad Prism (Version 10.0.3). Potency values for legacy anti-malarials obtained from our FLAR endpoint were compared to those previously reported from a 1536-well plate format using a Bright-Glo™ luciferase detection protocol.

Molecule `c1cc([C@H]2CC[C@]3(CC2)OO[C@]2(O3)C3CC4CC(C3)CC2C4)ccc1OCCN1CCOCC1` [Artefenomel (OZ439), Artefenomel] has an EC50 [1] of over 1230 nM and an EC50 [2] of over 28800 nM.

`CO[C@H]1O[C@@H]2O[C@@]3(C)CC[C@H]4[C@H](C)CC[C@@H]([C@H]1C)[C@@]24OO3` [Artemether] showed an EC50 [1] of over 37200 nM and an EC50 [2] of over 1070 nM.

With `C[C@@H]1CC[C@H]2[C@@H](C)C(=O)O[C@@H]3O[C@@]4(C)CC[C@@H]1[C@]32OO4` [Artemisinin] the EC50 [1] was over 50100 nM and the EC50 [2] was over 50100 nM.

For `C[C@H]1[C@@H](O)O[C@@H]2O[C@@]3(C)CC[C@H]4[C@H](C)CC[C@@H]1[C@@]24OO3` [Artenimol (DHA), dihydroartemisinin], the EC50 [1] was over 10000 nM and the EC50 [2] was over 10000 nM.

`CC(C)(N)CNC(=O)C[C@H]1CC[C@]2(CC1)OO[C@]1(O2)C2CC3CC(C2)CC1C3` [Arterolane (OZ277), Arterolane] showed an EC50 [1] of over 3020 nM and an EC50 [2] of over 10000 nM.

`C[C@H]1[C@H](OC(=O)CCC(=O)O)O[C@@H]2O[C@@]3(C)CC[C@H]4[C@H](C)CC[C@@H]1[C@@]24OO3` [Artesunate] gave an EC50 [1] of over 16600 nM and an EC50 [2] of over 16600 nM.

Work on `O=C1C(O)=C([C@H]2CC[C@H](c3ccc(Cl)cc3)CC2)C(=O)c2ccccc21` [Atovaquone] yielded an EC50 [1] of 17 nM and an EC50 [2] of 21.4 nM.

With `CC[C@H]1OC(=O)[C@H](C)[C@@H](O[C@H]2C[C@@](C)(OC)[C@@H](O)[C@H](C)O2)[C@H](C)[C@@H](O[C@@H]2O[C@H](C)C[C@H](N(C)C)[C@H]2O)[C@](C)(O)C[C@@H](C)CN(C)[C@H](C)[C@@H](O)[C@]1(C)O` [Azithromycin] the EC50 [1] was over 10000 nM and the EC50 [2] was over 10000 nM.

Molecule `CCN(CC)CCCC(C)Nc1ccnc2cc(Cl)ccc12` (stereo not shown) [Chloroquine] has an EC50 [1] of over 10000 nM and an EC50 [2] of over 10000 nM.

For `C[C@H]1Cc2c([nH]c3cc(Cl)c(F)cc23)[C@@]2(N1)C(=O)Nc1ccc(Cl)cc12` [Cipargamin], the EC50 [1] was 9.55 nM and the EC50 [2] was 10.2 nM.

Molecule `Cc1cc(Nc2ccc(S(F)(F)(F)(F)F)cc2)n2nc(C(C)(F)F)nc2n1` [DSM265] has an EC50 [1] of 11.2 nM and an EC50 [2] of 16.6 nM.

For `CCCCN(CCCC)CC(O)c1cc(Cl)cc2c1-c1ccc(Cl)cc1/C2=C/c1ccc(Cl)cc1` (stereo not shown) [Lumefantrine], the EC50 [1] was over 5750 nM and the EC50 [2] was over 5750 nM.

`CS(=O)(=O)c1ccc(-c2cnc(N)c(-c3ccc(C(F)(F)F)nc3)c2)cc1` [MMV390048] showed an EC50 [1] of 63.1 nM and an EC50 [2] of 64.6 nM.

Molecule `CN(C)c1ccc2nc3ccc(=[N+](C)C)cc-3sc2c1` [Methylene Blue] has an EC50 [1] of 295 nM and an EC50 [2] of 219 nM.

`Clc1ccc2c(N3CCN(CCCN4CCN(c5ccnc6cc(Cl)ccc56)CC4)CC3)ccnc2c1` [Piperaquine] was tested, and the EC50 [1] was over 5750 nM and the EC50 [2] was over 5250 nM.

Molecule `COc1cc(NC(C)CCCN)c2ncccc2c1` (stereo not shown) [Primaquine] has an EC50 [1] of over 10000 nM and an EC50 [2] of over 5370 nM.

Molecule `CCc1nc(N)nc(N)c1-c1ccc(Cl)cc1` [Pyrimethamine] has an EC50 [1] of 19.5 nM and an EC50 [2] of 33.9 nM.

`COc1ncnc(NS(=O)(=O)c2ccc(N)cc2)c1OC` [Sulfadoxine] showed an EC50 [1] of over 10000 nM and an EC50 [2] of over 10000 nM.

For `COc1cc(C)c2c(Oc3cccc(C(F)(F)F)c3)c(OC)cc(NC(C)CCCN)c2n1` (stereo not shown) [Tafenoquine], the EC50 [1] was over 3390 nM and the EC50 [2] was over 1580 nM.

For `COc1cc(Cc2cnc(N)nc2N)cc(OC)c1OC` [Trimethoprim], the EC50 [1] was 1740 nM and the EC50 [2] was 1290 nM.
